What all share (type): cell-based
Experiment [1] relates to Haemophilus influenzae 1218. Put plainly: MIC, microtiter broth dilution (NCCLS M100-S14), H. influenzae 1218 (susceptible). The essentials: (§1)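 DMSO stocks, 40 mg/ml; trays scored for MIC following M100-S14 (NCCLS).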
Experiment [2] relates to Streptococcus pneumoniae 1095. The note with it: microtiter broth dilution. The method in brief:
as §1
On the technique in general: In broth dilution the organism is exposed to a series of concentrations in liquid medium.

In experiment [3] the test system is Streptococcus pneumoniae 1175. The note with it: microtiter broth dilution. The essentials: as §1
For experiment [4], the system named is Streptococcus pyogenes 1079. Put plainly: MIC, microtiter broth dilution (NCCLS M100-S14), S. pyogenes 1079 (ermB). The essentials:
as §1

For experiment [5], the system named is Streptococcus pneumoniae 1016. Put plainly: MIC, microtiter broth dilution (NCCLS M100-S14), S. pneumoniae 1016 (susceptible). The method in brief:
as §1

Setting [6] is: H. influenzae 1218 (susceptible).
The mark [7] stands for this setting: S. pneumoniae 1016 (susceptible).

Molecules are shown by their SMILES. Values after ≈ are worked out from the molar mass of the structure shown. Where two headings read alike, the source gives them in different places. A value given as a limit tells only on which side of the number the result lay.

The values that follow come from US7462600B2, “Macrolides” (Pfizer Inc, priority 2004, dated 2008).

Turning to `CCC1OC(=O)C(C)C(=O)C(C)C(OC2OC(C)CC(N(C)C)C2O)C(C)(OC)CC(C)C(=O)C(C)C2N(CC3CCCN3C(=O)c3cc4ccncc4[nH]3)C(=O)OC12C` (stereo not shown) [10.34], the “MIC H. influenzae 1218” value in experiment [1] (setting [6]) worked out at 2 µg/mL (≈ 2.38 µM). Further, the “MIC S. pneumo. 1095” value in experiment [2] (S. pneumoniae 1095 (ermB)) worked out at 0.12 µg/mL (≈ 0.143 µM). Further, in experiment [3] (S. pneumoniae 1175 (mefA)), the “MIC S. pneumo. 1175” value amounted to 0.12 µg/mL (≈ 0.143 µM). Also, in experiment [4] (S. pyogenes 1079 (ermB)), the “MIC S. pyogenes 1079” value is greater than 64.00 µg/mL. In experiment [5] (setting [7]), the “MIC S. pneumo. 1016” value is less than 0.06 µg/mL.

Turning to `CCC1OC(=O)C(C)C(=O)C(C)C(OC2OC(C)CC(N(C)C)C2O)C(C)(OC)CC(C)C(=O)C(C)C2N(C3CN(Cc4cccnc4)C3)C(=O)OC12C` (stereo not shown) [Example 1.03, (pyridin-3-yl)methyl], in experiment [1] (Haemophilus influenzae 1218), the “MIC H. influenzae 1218” value came to 0.5 µg/mL (≈ 0.659 µM). The “MIC S. pneumo. 1095” value in experiment [2] (Streptococcus pneumoniae 1095) is less than 0.06 µg/mL. Moreover, the “MIC S. pneumo. 1175” value in experiment [3] (Streptococcus pneumoniae 1175) was 2 µg/mL (≈ 2.64 µM). The “MIC S. pyogenes 1079” value in experiment [4] (Streptococcus pyogenes 1079) is greater than 64.00 µg/mL. The “MIC S. pneumo. 1016” value in experiment [5] (Streptococcus pneumoniae 1016) is less than 0.06 µg/mL.

As for `CCC1OC(=O)C(C)C(=O)C(C)C(OC2OC(C)CC(N(C)C)C2O)C(C)(OC)CC(C)C(=O)C(C)C2N(CC3CN(Cc4n[nH]c5ncccc45)C3)C(=O)OC12C.O=CO` (stereo not shown) [4.43], in experiment [1] (Haemophilus influenzae 1218), the “MIC H. influenzae 1218” value was 0.25 µg/mL. The “MIC S. pneumo. 1095” value in experiment [2] (Streptococcus pneumoniae 1095) turned out to be 0.12 µg/mL. Further, the “MIC S. pneumo. 1175” value in experiment [3] (Streptococcus pneumoniae 1175) was determined as 1 µg/mL. For the same molecule, the “MIC S. pyogenes 1079” value in experiment [4] (Streptococcus pyogenes 1079) is greater than 64.00 µg/mL. Moreover, the “MIC S. pneumo. 1016” value in experiment [5] (Streptococcus pneumoniae 1016) was less than 0.06 µg/mL.

Consider `CCC1OC(=O)C(C)C(=O)C(C)C(OC2OC(C)CC(N(C)C)C2O)C(C)(OC)CC(C)C(=O)C(C)C2N(C3CN(S(=O)(=O)c4cccc5nsnc45)C3)C(=O)OC12C` (stereo not shown) [Example 3.06, 3-descladinosyl-11,12-dideoxy-6-O-methyl-3-oxo-12,11-(oxycarbonyl-(1-(benzo[1,2,5]thiadiazole-4-sulfonyl)-azetidin-3-yl)-imino)erythromycin A], for which, in experiment [1] (Haemophilus influenzae 1218), the “MIC H. influenzae 1218” value is 0.12 µg/mL (≈ 0.139 µM). The “MIC S. pneumo. 1095” value in experiment [2] (Streptococcus pneumoniae 1095) was less than 0.06 µg/mL. Further, the “MIC S. pneumo. 1175” value in experiment [3] (Streptococcus pneumoniae 1175) was less than 0.06 µg/mL. Also, the “MIC S. pyogenes 1079” value in experiment [4] (Streptococcus pyogenes 1079) was found to be 1 µg/mL (≈ 1.15 µM). In addition, the “MIC S. pneumo. 1016” value in experiment [5] (Streptococcus pneumoniae 1016) was less than 0.06 µg/mL.

On to `CCC1OC(=O)C(C)C(=O)C(C)C(OC2OC(C)CC(N(C)C)C2O)C(C)(OC)CC(C)C(=O)C(C)C2N(C3CN(S(=O)(=O)c4ccc(-n5ccnc5)cc4)C3)C(=O)OC12C` (stereo not shown) [Example 3.82, 3-descladinosyl-11,12-dideoxy-6-O-methyl-3-oxo-12,11-(oxycarbonyl-(1-(4-(1H-imidazol-1-yl)benzenesulfonyl)-azetidin-3-yl)-imino)erythromycin A], for which the “MIC H. influenzae 1218” value in experiment [1] (Haemophilus influenzae 1218) was found to be 0.25 µg/mL (≈ 0.286 µM). In experiment [2] (Streptococcus pneumoniae 1095), the “MIC S. pneumo. 1095” value was less than 0.06 µg/mL. Further, in experiment [3] (Streptococcus pneumoniae 1175), the “MIC S. pneumo. 1175” value was less than 0.06 µg/mL. Also, the “MIC S. pyogenes 1079” value in experiment [4] (Streptococcus pyogenes 1079) was 2 µg/mL (≈ 2.29 µM). Besides, in experiment [5] (Streptococcus pneumoniae 1016), the “MIC S. pneumo. 1016” value is less than 0.06 µg/mL.

Turning to `CCC1OC(=O)C(C)C(=O)C(C)C(OC2OC(C)CC(N(C)C)C2O)C(C)(OC)CC(C)C(=O)C(C)C2N(CC3CN(Cc4cccc5nccnc45)C3)C(=O)OC12C` (stereo not shown) [4.17], the “MIC H. influenzae 1218” value in experiment [1] (Haemophilus influenzae 1218) turned out to be 0.25 µg/mL (≈ 0.303 µM). The “MIC S. pneumo. 1095” value in experiment [2] (Streptococcus pneumoniae 1095) amounted to 0.5 µg/mL (≈ 0.607 µM). Moreover, the “MIC S. pneumo. 1175” value in experiment [3] (Streptococcus pneumoniae 1175) was determined as 0.12 µg/mL (≈ 0.146 µM). The “MIC S. pyogenes 1079” value in experiment [4] (Streptococcus pyogenes 1079) turned out to be 64 µg/mL (≈ 77.7 µM). Besides, in experiment [5] (Streptococcus pneumoniae 1016), the “MIC S. pneumo. 1016” value is less than 0.06 µg/mL.

On to `CCC1OC(=O)C(C)C(=O)C(C)C(OC2OC(C)CC(N(C)C)C2O)C(C)(OC)CC(C)C(=O)C(C)C2N(CC3CCCN3C(=O)c3ccc4nccnc4c3)C(=O)OC12C.O=CO` (stereo not shown) [10.12], for which, in experiment [1] (setting [6]), the “MIC H. influenzae 1218” value came out at 2 µg/mL. The “MIC S. pneumo. 1095” value in experiment [2] (S. pneumoniae 1095 (ermB)) was less than 0.06 µg/mL. In addition, the “MIC S. pneumo. 1175” value in experiment [3] (S. pneumoniae 1175 (mefA)) stood at 0.12 µg/mL. The “MIC S. pyogenes 1079” value in experiment [4] (S. pyogenes 1079 (ermB)) came out at 32 µg/mL. Further, the “MIC S. pneumo. 1016” value in experiment [5] (setting [7]) is less than 0.06 µg/mL.

As to `CC[C@H]1OC(=O)[C@H](C)[C@@H](OC(=O)N2CCCC2)[C@H](C)[C@@H](O[C@@H]2O[C@H](C)C[C@H](N(C)C)[C@H]2O)[C@](C)(OC)C[C@@H](C)C(=O)[C@H](C)[C@H]2N(CC3CN(Cc4nccc5ccccc45)C3)C(=O)O[C@]12C` [Example 5.09, 2-R^2: (isoquinolin-1-yl)methyl; R^#: pyrrolidin-1-yl], the “MIC H. influenzae 1218” value in experiment [1] (Haemophilus influenzae 1218) was 2 µg/mL (≈ 2.17 µM). Further, the “MIC S. pneumo. 1095” value in experiment [2] (Streptococcus pneumoniae 1095) amounted to 1 µg/mL (≈ 1.08 µM). The “MIC S. pneumo. 1175” value in experiment [3] (Streptococcus pneumoniae 1175) is less than 0.06 µg/mL. In addition, the “MIC S. pyogenes 1079” value in experiment [4] (Streptococcus pyogenes 1079) turned out to be 64 µg/mL (≈ 69.4 µM). Also, the “MIC S. pneumo. 1016” value in experiment [5] (Streptococcus pneumoniae 1016) is less than 0.06 µg/mL.
